Values quoted from earlier work, collected in paper PMC9285603, “Flavan‐3‐ol Microbial Metabolites Modulate Proteolysis in Neuronal Cells Reducing Amyloid‐beta (1‐42) Levels” (Molecular Nutrition & Food Research, 2021).

What was measured:
[1] = system: human neuroblastoma SH‐SY5Y cells; set-up: method as in PMID 28891114; conditions: cited from earlier work
[2] = set-up: method as in PMID 28891114; conditions: compared with parental compound EGCG; cited from earlier work
[3] = system: brown adipocytes; set-up: method as in PMID 28276197; conditions: cited from earlier work

Structure (SMILES)	neurites outgrowth and elongation [1]	BBB permeability [2]	protection from increased production of reactive oxygen species [3]
O=C1CCC(Cc2cc(O)cc(O)c2)O1 (stereo not drawn) [5‐(3ʹ,5ʹ‐dihydroxyphenyl)‐γ‐valerolactone]	significantly induced	slightly higher	–
O=C1CC[C@H](Cc2ccc(O)c(O)c2)O1 [(R)‐5‐(3ʹ,4ʹ‐dihydroxyphenyl)‐γ‐valerolactone]	–	–	protect brown adipocytes
